# Assay results taken from patent publication US8791132B2, “Compounds and methods for treatment of hypertension” (Medivation Technologies, Inc., priority 2011, dated 2014).
# Like-named read-outs stand apart in the source and are kept apart here.
# How the values were obtained:
# [1] = target: T1, human recombinant adrenergic α2A receptor (Homo sapiens, UniProt P08913); assay: Radioligand binding, adrenergic α2A ([3H]MK-912)
# T1 construct: expressed in transfected cells; host or cells: insect Sf9 cells
# T1 sequence (P08913 1-465): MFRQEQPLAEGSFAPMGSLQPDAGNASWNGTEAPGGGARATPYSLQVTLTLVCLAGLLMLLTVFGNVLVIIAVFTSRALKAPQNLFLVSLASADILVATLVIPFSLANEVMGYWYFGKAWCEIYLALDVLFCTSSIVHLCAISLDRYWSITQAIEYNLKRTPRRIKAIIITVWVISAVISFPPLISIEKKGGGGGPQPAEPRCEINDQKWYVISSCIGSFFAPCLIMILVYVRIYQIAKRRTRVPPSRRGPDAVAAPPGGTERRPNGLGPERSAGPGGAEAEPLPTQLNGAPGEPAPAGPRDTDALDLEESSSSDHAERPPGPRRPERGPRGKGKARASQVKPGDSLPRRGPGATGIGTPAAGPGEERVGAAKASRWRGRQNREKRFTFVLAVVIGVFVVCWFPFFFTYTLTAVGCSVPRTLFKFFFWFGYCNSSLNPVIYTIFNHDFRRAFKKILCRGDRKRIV
# How it was run: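 Sf9 membranes, 1 nM [3H]MK-912, 60 min, 25 °C, Tris-HCl pH 7.4/MgCl2/EDTA buffer. NSB: 10 μM WB-4101. Filtration, counting; % inhibition of specific binding.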
# [2] = target: T2, human recombinant adrenergic α2B receptor (Homo sapiens, UniProt P18089); assay: Radioligand binding, adrenergic α2B ([3H]Rauwolscine); settings: for Percentage inhibition of ligand binding, Adrenergic α2B (0.03 μM) / Percentage inhibition of ligand binding, Adrenergic α2B: 0.03 µM
# T2 construct: expressed in transfected cells; host or cells: CHO-K1
# T2 sequence (P18089 1-450): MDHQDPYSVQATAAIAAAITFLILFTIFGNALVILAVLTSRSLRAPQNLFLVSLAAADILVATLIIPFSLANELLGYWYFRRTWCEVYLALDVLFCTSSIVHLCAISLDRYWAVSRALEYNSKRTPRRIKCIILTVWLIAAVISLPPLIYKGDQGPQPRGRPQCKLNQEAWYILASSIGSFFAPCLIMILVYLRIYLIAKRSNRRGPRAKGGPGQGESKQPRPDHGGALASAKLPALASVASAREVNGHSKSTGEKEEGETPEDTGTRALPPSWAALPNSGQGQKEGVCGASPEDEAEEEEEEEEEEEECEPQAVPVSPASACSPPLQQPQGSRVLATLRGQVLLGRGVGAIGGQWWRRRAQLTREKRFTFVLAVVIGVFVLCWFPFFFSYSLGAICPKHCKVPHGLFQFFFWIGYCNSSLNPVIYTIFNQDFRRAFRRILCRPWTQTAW
# How it was run: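 Values are percent inhibition of specific radioligand binding. The receptor, expressed in CHO-K1 cells, was exposed to 2.5 nM [3H]Rauwolscine at 25° C for 60 min, with 10 μM Prazosin marking non-specific binding.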
# [3] = target: T3, rat adrenergic α1B receptor (Rattus norvegicus, UniProt P15823); assay: Radioligand binding, adrenergic α1B ([3H]Prazosin); settings: for Percentage inhibition of ligand binding, Adrenergic α1B / Percentage inhibition of ligand binding, Adrenergic α1B (0.1 μM): 0.1 µM
# T3 construct: rat adrenergic α1B receptor obtained from Wistar Rat liver; from tissue; host or cells: Wistar rat liver
# T3 sequence (P15823 1-515): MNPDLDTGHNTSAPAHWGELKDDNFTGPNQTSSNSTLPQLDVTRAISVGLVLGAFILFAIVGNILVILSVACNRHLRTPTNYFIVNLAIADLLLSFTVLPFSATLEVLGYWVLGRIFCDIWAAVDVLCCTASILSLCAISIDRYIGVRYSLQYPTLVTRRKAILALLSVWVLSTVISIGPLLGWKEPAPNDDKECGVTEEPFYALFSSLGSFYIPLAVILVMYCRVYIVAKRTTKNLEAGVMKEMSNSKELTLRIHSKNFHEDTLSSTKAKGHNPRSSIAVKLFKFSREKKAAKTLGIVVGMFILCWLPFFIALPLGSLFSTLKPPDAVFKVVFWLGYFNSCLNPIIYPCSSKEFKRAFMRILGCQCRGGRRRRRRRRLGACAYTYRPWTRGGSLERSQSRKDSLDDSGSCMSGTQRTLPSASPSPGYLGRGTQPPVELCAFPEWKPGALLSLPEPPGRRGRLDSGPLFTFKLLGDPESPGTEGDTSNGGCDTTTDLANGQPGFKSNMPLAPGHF
# How it was run: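 Rat α1B receptor from Wistar rat liver was incubated with 0.25 nM [3H]prazosin for 60 min at 25 °C in 50 mM Tris-HCl, pH 7.4, 0.5 mM EDTA. Non-specific binding was defined with 10 μM phentolamine. Bound radioligand was measured by filtration and counting, reported as percent inhibition of specific binding.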
# [4] = 0.1 μM compound, read-out: Percentage inhibition of ligand binding, Adrenergic α2A
# [5] = 0.03 μM compound, read-out: Percentage inhibition of ligand binding, Adrenergic α2B
# [6] = 0.1 μM compound, read-out: Percentage inhibition of ligand binding, Adrenergic α1B
# [7] = compound at 0.1 μM, [3H]MK-912, repeat assays, each datapoint shown, read-out: Percentage inhibition of ligand binding, Adrenergic α2A
# [8] = compound at 0.03 μM, [3H]Rauwolscine, repeat assays, each datapoint shown, read-out: Percentage inhibition of ligand binding, Adrenergic α2B
# [9] = compound at 0.1 μM, [3H]Prazosin, repeat assays, each datapoint shown
# [10] = compound at 0.1 μM, [3H]MK-912, repeat datapoints each shown, 0.1 µM
# [11] = compound at 0.03 μM, [3H]Rauwolscine, repeat datapoints each shown
# [12] = compound at 0.1 μM, [3H]Prazosin, repeat datapoints each shown
# [13] = compound at 0.1 μM, [3H]MK-912, repeat assays, each datapoint shown, 0.1 µM
# [14] = compound at 0.03 μM, [3H]Rauwolscine, repeat assays, each datapoint shown
# [15] = compound at 0.1 μM, [3H]Prazosin, repeat assays, each datapoint shown, read-out: Percentage inhibition of ligand binding, Adrenergic α1B
# [16] = read-out: Percentage inhibition of ligand binding, Adrenergic α2A (0.1 μM), compound at 0.1 μM, [3H]MK-912, repeat datapoints each shown
# [17] = read-out: Percentage inhibition of ligand binding, Adrenergic α2B (0.03 μM), compound at 0.03 μM, [3H]Rauwolscine, repeat datapoints each shown
# [18] = read-out: Percentage inhibition of ligand binding, Adrenergic α1B (0.1 μM), compound at 0.1 μM, [3H]Prazosin, repeat datapoints each shown
smiles,measurement,setting,value
"Cc1ccc2c(c1)c1c(n2CC(O)c2ccncc2)CCN(CCO)C1 (stereo not shown) [II-64, 2-[2-(2-hydroxy-ethyl)-8-methyl-1,2,3,4-tetrahydro-pyrido[4,3-b]indol-5-yl]-1-pyridin-4-yl-ethanol]",inhibition at 0.1 µM,[1]; [4],-3%
same,inhibition at 0.03 µM,[2]; [5],54%
same,inhibition at 0.1 µM,[3]; [6],23%
"Cc1ccc2c(c1)c1c(n2CC(C)(O)c2ccc[n+]([O-])c2)CCN(C)C1 (single isomer, unassigned) [56a]",inhibition at 0.1 µM,[1]; [7],11%
same,inhibition at 0.03 µM,[2]; [8],20%
same,"Percentage inhibition of ligand binding, Adrenergic α1B",[3]; [9],1%
"Cc1ccc2c(c1)c1c(n2CC(c2cnccn2)N(C)C)CCN2CCCC12 (stereo not shown) [II-7, dimethyl-[2-(9-methyl-1,2,3,4,5,10c-hexahydro-3a,6-diaza-cyclopenta[c]fluoren-6-yl)-1-pyrazin-2-yl-ethyl]-amine]",inhibition at 0.1 µM,[1]; [4],52%
same,inhibition at 0.03 µM,[2]; [5],100%
same,inhibition at 0.1 µM,[3]; [6],95%
"CCN1CCc2c(c3cc(C)ccc3n2CC(O)c2ccc(C)cc2)C1 (single isomer, unassigned) [203a]","Percentage inhibition of ligand binding, Adrenergic α2A (0.1 μM)",[1]; [10],71%
same,"Percentage inhibition of ligand binding, Adrenergic α2B (0.03 μM)",[2]; [11],36%
same,"Percentage inhibition of ligand binding, Adrenergic α1B (0.1 μM)",[3]; [12],76%
"CN1CCc2c(c3cc(C(C)(C)O)ccc3n2CC(O)c2ccncc2)C1 (single isomer, unassigned) [23a, 2-(2,3,4,5-tetrahydro-5-(2-hydroxy-2-(pyridin-4-yl)ethyl)-2-methyl-1H-pyrido[4,3-b]indol-8-yl)propan-2-ol]","Percentage inhibition of ligand binding, Adrenergic α2A",[1]; [13],4%
same,"Percentage inhibition of ligand binding, Adrenergic α2B",[2]; [14],6%
same,"Percentage inhibition of ligand binding, Adrenergic α1B",[3]; [9],−20%
"CC(=O)c1ccc2c(c1)c1c(n2CC(O)c2ccncc2)CCN(C)C1 (single isomer, unassigned) [49a, 1-(2,3,4,5-tetrahydro-5-(2-hydroxy-2-(pyridin-4-yl)ethyl)-2-methyl-1H-pyrido[4,3-b]indol-8-yl)ethanone]","Percentage inhibition of ligand binding, Adrenergic α2A",[1]; [13],1%
same,inhibition at 0.03 µM,[2]; [8],18%
same,inhibition at 0.1 µM,[3]; [15],4%
Cc1ccc2c(c1)c1c(n2CC(C)(O)c2ccc(C)nc2)CCN(C)C1 (stereo not shown) [29b],"Percentage inhibition of ligand binding, Adrenergic α2A","[1]; compound at 0.1 μM, [3H]MK-912, repeat assays, each datapoint shown",10%
same,inhibition at 0.03 µM,[2]; [8],46%
same,"Percentage inhibition of ligand binding, Adrenergic α1B",[3]; [9],14%
"COC(=O)CC(Cn1c2c(c3cc(C)ccc31)CN(C)CC2)c1ccncc1 (stereo not shown) [II-223, 4-(2,8-dimethyl-1,2,3,4-tetrahydro-pyrido[4,3-b]indol-5-yl)-3-pyridin-4-yl-butyric acid methyl ester]",inhibition at 0.1 µM,[1]; [16],8%
same,inhibition at 0.03 µM,[2]; [17],88%
same,inhibition at 0.1 µM,[3]; [18],9%
"Cc1ccc2c(c1)c1c(n2CC(C)(O)c2ccc(C)nc2)CCN(C)C1 (single isomer, unassigned) [29a]",Ki,[1],77.2 nM
same,inhibition at 0.03 µM,"[1]; compound at 0.03 μM, [3H]MK-912, repeat assays, each datapoint shown, read-out: Percentage inhibition of ligand binding, Adrenergic α2A",16%
same,"Percentage inhibition of ligand binding, Adrenergic α2A",[1]; [13],39%
same,inhibition at 0.1 µM,[1]; [7],35%
same,"Percentage inhibition of ligand binding, Adrenergic α2B",[2]; [14],100%
same,inhibition at 0.03 µM,[2]; [8],98%
same,Ki,[2]; read-out: Ki α2B,1.09 nM
same,inhibition at 0.03 µM,"[3]; compound at 0.03 μM, [3H]Prazosin, repeat assays, each datapoint shown, read-out: Percentage inhibition of ligand binding, Adrenergic α1B",19%
same,"Percentage inhibition of ligand binding, Adrenergic α1B",[3]; [9],38%
same,inhibition at 0.1 µM,[3]; [15],32%
"CCN1CCc2c(c3cc(C)ccc3n2CC(O)c2ccc(C)cc2)C1 (single isomer, unassigned) [203b]","Percentage inhibition of ligand binding, Adrenergic α2A (0.1 μM)",[1]; [10],31%
same,"Percentage inhibition of ligand binding, Adrenergic α2B (0.03 μM)",[2]; [11],24%
same,"Percentage inhibition of ligand binding, Adrenergic α1B (0.1 μM)",[3]; [12],47%
"Cc1ccc2c(c1)c1c(n2CC(O)c2ccncc2)CC2CCCN2C1 (single isomer, unassigned) [76b]","Percentage inhibition of ligand binding, Adrenergic α2A",[1]; [13],18%
same,"Percentage inhibition of ligand binding, Adrenergic α2B",[2]; [14],34%
same,"Percentage inhibition of ligand binding, Adrenergic α1B",[3]; [9],71%
CN1C2CCC1c1c(n(CC(O)c3ccncc3)c3ccc(Cl)cc13)C2 (stereo not shown) [II-66],inhibition at 0.1 µM,[1]; [4],0%
same,inhibition at 0.03 µM,[2]; [5],46%
same,inhibition at 0.1 µM,[3]; [6],27%
"Cc1cnc2c(c1)c1c(n2CC(N)c2ccc(C#N)cc2)CCNC1 (single isomer, unassigned) [160a]","Percentage inhibition of ligand binding, Adrenergic α2A (0.1 μM)",[1]; [10],−12%
same,inhibition at 0.03 µM,[2]; [17],43%
same,"Percentage inhibition of ligand binding, Adrenergic α1B (0.1 μM)",[3]; [12],35%
Cc1ccc2c(c1)c1c(n2CC(CC(=O)O)c2ccncc2)CCN(C)C1 (stereo not shown) [II-228],inhibition at 0.1 µM,[1]; [16],3%
same,inhibition at 0.03 µM,[2]; [17],10%
same,inhibition at 0.1 µM,[3]; [18],-2%
Cc1ccc2c(c1)c1c(n2CC(O)c2ccncc2)CC2CCCCN2C1 (racemic) [75c],"Percentage inhibition of ligand binding, Adrenergic α2A",[1]; [13],−2%
same,"Percentage inhibition of ligand binding, Adrenergic α2B",[2]; [14],11%
same,"Percentage inhibition of ligand binding, Adrenergic α1B",[3]; [9],59%
"Cc1ccc2c(c1)c1c(n2CC(O)c2ccncc2)CC2CCCN2C1 (single isomer, unassigned) [76d]","Percentage inhibition of ligand binding, Adrenergic α2A",[1]; [13],40%
same,"Percentage inhibition of ligand binding, Adrenergic α2B",[2]; [14],91%
same,"Percentage inhibition of ligand binding, Adrenergic α1B",[3]; [9],51%
"Cc1ccc2c(c1)c1c(n2CC(O)c2ccncc2)CCN(C)CC1 (stereo not shown) [compound 13, 2-(3,9-dimethyl-2,3,4,5-tetrahydroazepino[4,5-b]indol-6(1H)-yl)-1-(pyridin-4-yl)ethanol]","Percentage inhibition of ligand binding, Adrenergic α2A",[1]; [13],18%
same,"Percentage inhibition of ligand binding, Adrenergic α2B",[2]; [14],92%
same,inhibition at 0.1 µM,[3]; [15],83%
